Activity and solubility data for 13 molecules are collected here from ChEMBL document CHEMBL5236582, “Trehalose diesters containing a polar functional group-modified lipid moiety: Synthesis and evaluation of Mincle-mediated signaling activity” (Bioorg Med Chem, 2022).

Calls of active or inactive are those of the source. No cut-off for these calls is given here.

For data set [1], the target named is T1, C-type lectin domain family 4 member E (Homo sapiens) (UniProt Q9ULY5).
T1 sequence (whole entry): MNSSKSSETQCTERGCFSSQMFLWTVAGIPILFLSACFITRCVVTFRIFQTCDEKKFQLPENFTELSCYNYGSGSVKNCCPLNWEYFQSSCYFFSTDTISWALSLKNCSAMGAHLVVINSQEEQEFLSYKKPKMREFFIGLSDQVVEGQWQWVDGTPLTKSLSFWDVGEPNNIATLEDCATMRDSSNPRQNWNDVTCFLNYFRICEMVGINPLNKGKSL
In words: Induction of human Mincle expressed in NFAT-GFP reporter cells assessed as induction of mincle-mediated NFAT signaling activity by measuring stimulation of GFP reporter activity at 0.1 nmol/well incubated for 18 hrs by flow cytometry. The format is cell-based. To be noted: filed as agonist. (In general: A flow cytometer gives signals particle by particle.)

For data set [2], the target named is T2, C-type lectin domain family 4 member E (Mus musculus) (UniProt Q9R0Q8).
T2 sequence (whole entry): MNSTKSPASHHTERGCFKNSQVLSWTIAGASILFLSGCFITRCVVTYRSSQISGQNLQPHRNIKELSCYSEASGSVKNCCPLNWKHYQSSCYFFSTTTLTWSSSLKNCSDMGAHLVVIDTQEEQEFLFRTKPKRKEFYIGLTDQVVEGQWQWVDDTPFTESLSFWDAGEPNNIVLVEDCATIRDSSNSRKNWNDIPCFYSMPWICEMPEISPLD
The data set can be described thus: Induction of mouse Mincle expressed in NFAT-GFP reporter cells assessed as induction of mincle-mediated NFAT signaling activity by measuring stimulation of GFP reporter activity at 0.1 nmol/well incubated for 18 hrs by flow cytometry. The class given is cell-based. To be noted: filed as agonist.

Data set [3] has as its target T1, C-type lectin domain family 4 member E (Homo sapiens). In words: Induction of human Mincle expressed in NFAT-GFP reporter cells assessed as induction of mincle-mediated NFAT signaling activity by measuring stimulation of GFP reporter activity at 0.001 to 0.1 nmol/well incubated for 18 hrs by flow cytometry. The format is cell-based. To be noted: filed as agonist, dose 0.001-0.1 nmol.

For data set [4], the target named is T2, C-type lectin domain family 4 member E (Mus musculus). The data set can be described thus: Induction of mouse Mincle expressed in NFAT-GFP reporter cells assessed as induction of mincle-mediated NFAT signaling activity by measuring stimulation of GFP reporter activity at 0.001 to 0.1 nmol/well incubated for 18 hrs by flow cytometry. To be noted: filed as agonist, dose 0.001-0.1 nmol. The class given is cell-based.

Data set [5] in a line: Solubility of the compound in 1 mM DMSO. The class given is physicochemical.
Data set [6] in a line: Solubility of the compound in 8 mM DMSO. To be noted: 8000 µM. The format is physicochemical.

On to `CCCCCCCCCCCCCCCCCC(=O)OC[C@@H]1O[C@@H](O[C@H]2O[C@H](COC(=O)CCCCCCCCCCCCCCCCC)[C@@H](O)[C@H](O)[C@H]2O)[C@@H](O)[C@H](O)[C@H]1O`, for which the outcome in data set [1] and in data set [2] was Active.
For `CCCCCCCCCCCCC(N)CCCCCCCCC(=O)OC[C@@H]1O[C@@H](O[C@H]2O[C@H](COC(=O)CCCCCCCCC(N)CCCCCCCCCCCC)[C@@H](O)[C@H](O)[C@H]2O)[C@@H](O)[C@H](O)[C@H]1O` (some centres undefined), the outcome in data set [3] and in data set [4] was Active.
Consider `CCCCCCC(=O)CCCCCCCCCCC(=O)OC[C@@H]1O[C@@H](O[C@H]2O[C@H](COC(=O)CCCCCCCCCCC(=O)CCCCCC)[C@@H](O)[C@H](O)[C@H]2O)[C@@H](O)[C@H](O)[C@H]1O`, for which the result in data set [3] and in data set [4] was Active.
On to `CCCCCCCCCCCCC(=O)CCCCCCCCC(=O)OC[C@@H]1O[C@@H](O[C@H]2O[C@H](COC(=O)CCCCCCCCC(=O)CCCCCCCCCCCC)[C@@H](O)[C@H](O)[C@H]2O)[C@@H](O)[C@H](O)[C@H]1O`, for which the result in data set [3] and in data set [4] was Active.
As to `CCCCCCCCCCCCC(O)CCCCCCCCC(=O)OC[C@@H]1O[C@@H](O[C@H]2O[C@H](COC(=O)CCCCCCCCC(O)CCCCCCCCCCCC)[C@@H](O)[C@H](O)[C@H]2O)[C@@H](O)[C@H](O)[C@H]1O` (some centres undefined), the result in data set [3] and in data set [4] was Active. Further, in data set [5], the solubility result is on record as “Soluble”.
Regarding `CCCCCCCCC(=O)CCCCCCCCC(=O)OC[C@@H]1O[C@@H](O[C@H]2O[C@H](COC(=O)CCCCCCCCC(=O)CCCCCCCC)[C@@H](O)[C@H](O)[C@H]2O)[C@@H](O)[C@H](O)[C@H]1O`, the outcome in data set [3] and in data set [4] was Active.
On to `CCCCCCCC(O)CCCCCCCCCC(=O)OC[C@@H]1O[C@@H](O[C@H]2O[C@H](COC(=O)CCCCCCCCCC(O)CCCCCCC)[C@@H](O)[C@H](O)[C@H]2O)[C@@H](O)[C@H](O)[C@H]1O` (some centres undefined), for which the result in data set [3] and in data set [4] was Active.
Consider `CCCCCCCCCCCCCCCCCCCCCCCC(C(=O)OC[C@@H]1O[C@@H](O[C@H]2O[C@H](COC(=O)C(CCCCCCCCCCCCCCCCCCCCCCC)C(O)CCCCCCCCCCCCCCCCCC3CC3CCCCCCCCCCCCCCC3CC3CCCCCCCCCCCCCCCCCC)[C@@H](O)[C@H](O)[C@H]2O)[C@@H](O)[C@H](O)[C@H]1O)C(O)CCCCCCCCCCCCCCCCCC1CC1CCCCCCCCCCCCCCC1CC1CCCCCCCCCCCCCCCCCC` (some centres undefined), for which the result in data set [1] and in data set [2] was Active.
Take `CCCCCCC(O)CCCCCCCCCCC(=O)OC[C@@H]1O[C@@H](O[C@H]2O[C@H](COC(=O)CCCCCCCCCCC(O)CCCCCC)[C@@H](O)[C@H](O)[C@H]2O)[C@@H](O)[C@H](O)[C@H]1O` (some centres undefined): the outcome in data set [3] and in data set [4] was Active.
For the molecule `CCCCCCCCC(O)CCCCCCCCC(=O)OC[C@@H]1O[C@@H](O[C@H]2O[C@H](COC(=O)CCCCCCCCC(O)CCCCCCCC)[C@@H](O)[C@H](O)[C@H]2O)[C@@H](O)[C@H](O)[C@H]1O` (some centres undefined), the solubility result in data set [6] is listed as “Soluble”. Also, the outcome in data set [1] and in data set [2] was Active.
On to `CCCCCCCCC(N)CCCCCCCCC(=O)OC[C@@H]1O[C@@H](O[C@H]2O[C@H](COC(=O)CCCCCCCCC(N)CCCCCCCC)[C@@H](O)[C@H](O)[C@H]2O)[C@@H](O)[C@H](O)[C@H]1O` (some centres undefined), for which the outcome in data set [3] and in data set [4] was Active. Moreover, the solubility result in data set [5] is “Soluble”.
Consider `CCCCCCCCCCC(O)CCCCCCC(=O)OC[C@@H]1O[C@@H](O[C@H]2O[C@H](COC(=O)CCCCCCC(O)CCCCCCCCCC)[C@@H](O)[C@H](O)[C@H]2O)[C@@H](O)[C@H](O)[C@H]1O` (some centres undefined), for which the outcome in data set [3] and in data set [4] was Active.
Turning to `CCCCCCC(N)CCCCCCCCCCC(=O)OC[C@@H]1O[C@@H](O[C@H]2O[C@H](COC(=O)CCCCCCCCCCC(N)CCCCCC)[C@@H](O)[C@H](O)[C@H]2O)[C@@H](O)[C@H](O)[C@H]1O` (some centres undefined), the outcome in data set [3] and in data set [4] was Active.
